{
  "source": "patent US20100130597A1",
  "about": "“DNA-PKCS MODULATES ENERGY REGULATION AND BRAIN FUNCTION” (The United State of America, as represented by the …, priority 2007, published 2010)",
  "key": {"[1]": {"experiment": "Blood-brain barrier penetration inferred from behavioural effects", "type": "in vivo, mice", "conditions": "inferred from decreased anxiety/depression at a low-dose", "from_the_text": "For any central nervous system drugs, a major rate-limiting step for uptake into the brain is BBB permeability. […] The BBB is an essential physiological barrier for the maintenance and regulation of brain function. It is comprised of brain microvascular endothelial cells that are connected by tight junctions. This transvascular route to the brain is impenetrable to the majority of drugs. Enhanced BBB permeability is obtained, for example, by increasing the lipid solubility of the water-soluble molecules."}, "PGC-1α": {"tested_on": "PGC-1α", "experiment": "PGC-1α expression in AMPK α1/α2-null MEFs", "type": "cell-based, mouse", "conditions": "FIG. 53", "from_the_text": "AMPK is a heterotrimer kinase composed of a catalytic α subunit, and the β and γ regulatory subunits. There are two isoforms (α1 and α2) of the catalytic α subunit."}, "AMPK": {"tested_on": "AMPK", "experiment": "AMPK activation in C2C12 cells", "type": "cell-based", "experimental": "Expression of PGC-1α (FIGS. 12-14 and 49) can be induced by multiple proteins, including the energy sensor AMPK and the longevity protein Sirt1. Nutrient deprivation stimulates AMPK activity due to increasing AMP/ATP ratios. AMPK is activated by LKB1 kinase. Alternately, AMPK is also activated by a Ca^2+/calmodulin-dependent protein kinase (CaMK) without AMP. In order to test which upstream kinase plays a major role for AMPK activation after DNA-PKcs inhibition, C2C12 cells were treated with NU7026 in the presence or absence of a known CaMK chemical inhibitor ST0609. […] This raised the possibility that DNA-PKcs suppresses LKB1 and subsequently AMPK."}, "DNA-PKcs": {"target": "T1, DNA-PKcs (Homo sapiens, UniProt P78527)", "T1 construct": "endogenous in cells; host or cells: MCF7 (ATCC)", "experiment": "DNA-PKcs activation in MCF7 cells, immunoblot for phosphorylated Ser2056", "type": "cell-based", "conditions": "data not shown", "experimental": "MCF7 cells were obtained from the ATCC. MCF7 cells in G0 were treated with varying doses of H2O2 (FIG. 1). The cells were examined while in the G0 phase of their life cycle to mimic the post-mitotic state of cells in vivo. Low passage MCF-7 cells in G0 were exposed to varying concentrations of H2O2 for 60 minutes with or without Euk-134 or ionizing radiation (5 Gy). For Western blot analysis of DNA-PKcs activation and the activation of other signaling pathways in this study, the following antibodies were used: ACC1 (Cell Signaling); p-ACC1 (Upstate); AMP-activated protein kinase (AMPK; Cell Signaling); p-AMPK(T172) (Cell Signaling); DNA-PK (Lab Vision); p53 (Novocastra); p-DNA-PK(S2056) (Abeam); p-p53(S15) (Cell Signaling); γ-H2AX (Upstate); 53BP1 (Novus Biologicals).\nActivation of DNA-PKcs was visualized by immunoblotting cell lysates with antibody specific for phosphorylated Ser2056, which is autophosphorylated during DNA-PKcs activation (Chen et al., J. Biol. Chem. 280: 14709-15 (2005)) (FIG. 1). […] Instead, H2O2 increased DNA-PKcs activation, and such activation was abrogated by the antioxidant Euk-134 (FIG. 1), a potent synthetic superoxide dismutase and catalase mimetic (Chatterjee, Am. J. Nephrol. 24: 165-77 (2004)).\nMCF7 cells were then cultured in 25 mM glucose. Aliquots of the cultured MCF7 cells were treated with ionizing radiation and/or the DNA-PKcs-specific inhibitor NU7026. Treatment with glucose and ionizing radiation increased DNA-PKcs phosphorylation (data not shown). […] The basal activity of DNA-PKcs in MCF-7 cells in 25 mM glucose was detectable even in the absence of ionizing radiation, but this basal activity was suppressed with the DNA-PKcs-specific inhibitor NU7026 (data not shown)."}, "PI3K": {"tested_on": "PI3K", "conditions": "related kinase, selectivity; cited from earlier work"}, "Sirt1 and PGC-1α": {"tested_on": "Sirt1 and PGC-1α", "experiment": "Sirt1 and PGC-1α expression in C2C12 myoblasts", "type": "cell-based", "experimental": "Increased mitochondrial function boosts energy production and physical endurance. […] Further tests were therefore conducted to ascertain whether DNA-PKcs inhibitor elevates mitochondrial biogenesis and expression of PGC-1α and Sirt, which are important for mitochondrial biogenesis. […] It is important to note that only 2.5 μM of NU7026 was required to induce a similar level of Sirt1 to that induced by 25-50 μM Resveratrol, a well-known, potent Sirt1 activator."}, "Elevated plus maze test": {"experiment": "Elevated plus maze test", "type": "in vivo, mice", "experimental": "To evaluate whether SCID mice may also have altered anxiety, fear and depression-like traits, an elevated plus maze test was performed, which is a commonly used test to quantify the level of anxiety- and depression-like traits in rodents (Pellow et al. J. Neurosci. Methods 14: 149-67 (1985)). The elevated plus maze has narrow runways that are located 16 inches above the surface that are either closed or open. The animal is placed in the center of an elevated 4-arm maze in which 2 arms are open and 2 are enclosed. Mice generally avoid the open arms because of their fear of open space and height. The elevated plus-maze is used to determine the rodent's response to a potentially dangerous environment and anxiety-related behavior is measured by the degree to which the rodent avoids the unenclosed arms of the maze. Increase in the number of times the animal enters the open arm and the amount of time spent in the open arms reflect decreased anxiety and depression.\n(§1) Elevated plus maze tests, light/dark chamber tests, forced swim tests (FST) and hot plate tests were performed as described earlier."}, "Forced swim test (FST)": {"experiment": "Forced swim test (FST)", "type": "in vivo, mice", "conditions": "data not shown", "experimental": "as §1"}, "ATM": {"target": "ATM (Homo sapiens, UniProt Q13315)", "sequence (Q13315 whole entry, species assumed)": "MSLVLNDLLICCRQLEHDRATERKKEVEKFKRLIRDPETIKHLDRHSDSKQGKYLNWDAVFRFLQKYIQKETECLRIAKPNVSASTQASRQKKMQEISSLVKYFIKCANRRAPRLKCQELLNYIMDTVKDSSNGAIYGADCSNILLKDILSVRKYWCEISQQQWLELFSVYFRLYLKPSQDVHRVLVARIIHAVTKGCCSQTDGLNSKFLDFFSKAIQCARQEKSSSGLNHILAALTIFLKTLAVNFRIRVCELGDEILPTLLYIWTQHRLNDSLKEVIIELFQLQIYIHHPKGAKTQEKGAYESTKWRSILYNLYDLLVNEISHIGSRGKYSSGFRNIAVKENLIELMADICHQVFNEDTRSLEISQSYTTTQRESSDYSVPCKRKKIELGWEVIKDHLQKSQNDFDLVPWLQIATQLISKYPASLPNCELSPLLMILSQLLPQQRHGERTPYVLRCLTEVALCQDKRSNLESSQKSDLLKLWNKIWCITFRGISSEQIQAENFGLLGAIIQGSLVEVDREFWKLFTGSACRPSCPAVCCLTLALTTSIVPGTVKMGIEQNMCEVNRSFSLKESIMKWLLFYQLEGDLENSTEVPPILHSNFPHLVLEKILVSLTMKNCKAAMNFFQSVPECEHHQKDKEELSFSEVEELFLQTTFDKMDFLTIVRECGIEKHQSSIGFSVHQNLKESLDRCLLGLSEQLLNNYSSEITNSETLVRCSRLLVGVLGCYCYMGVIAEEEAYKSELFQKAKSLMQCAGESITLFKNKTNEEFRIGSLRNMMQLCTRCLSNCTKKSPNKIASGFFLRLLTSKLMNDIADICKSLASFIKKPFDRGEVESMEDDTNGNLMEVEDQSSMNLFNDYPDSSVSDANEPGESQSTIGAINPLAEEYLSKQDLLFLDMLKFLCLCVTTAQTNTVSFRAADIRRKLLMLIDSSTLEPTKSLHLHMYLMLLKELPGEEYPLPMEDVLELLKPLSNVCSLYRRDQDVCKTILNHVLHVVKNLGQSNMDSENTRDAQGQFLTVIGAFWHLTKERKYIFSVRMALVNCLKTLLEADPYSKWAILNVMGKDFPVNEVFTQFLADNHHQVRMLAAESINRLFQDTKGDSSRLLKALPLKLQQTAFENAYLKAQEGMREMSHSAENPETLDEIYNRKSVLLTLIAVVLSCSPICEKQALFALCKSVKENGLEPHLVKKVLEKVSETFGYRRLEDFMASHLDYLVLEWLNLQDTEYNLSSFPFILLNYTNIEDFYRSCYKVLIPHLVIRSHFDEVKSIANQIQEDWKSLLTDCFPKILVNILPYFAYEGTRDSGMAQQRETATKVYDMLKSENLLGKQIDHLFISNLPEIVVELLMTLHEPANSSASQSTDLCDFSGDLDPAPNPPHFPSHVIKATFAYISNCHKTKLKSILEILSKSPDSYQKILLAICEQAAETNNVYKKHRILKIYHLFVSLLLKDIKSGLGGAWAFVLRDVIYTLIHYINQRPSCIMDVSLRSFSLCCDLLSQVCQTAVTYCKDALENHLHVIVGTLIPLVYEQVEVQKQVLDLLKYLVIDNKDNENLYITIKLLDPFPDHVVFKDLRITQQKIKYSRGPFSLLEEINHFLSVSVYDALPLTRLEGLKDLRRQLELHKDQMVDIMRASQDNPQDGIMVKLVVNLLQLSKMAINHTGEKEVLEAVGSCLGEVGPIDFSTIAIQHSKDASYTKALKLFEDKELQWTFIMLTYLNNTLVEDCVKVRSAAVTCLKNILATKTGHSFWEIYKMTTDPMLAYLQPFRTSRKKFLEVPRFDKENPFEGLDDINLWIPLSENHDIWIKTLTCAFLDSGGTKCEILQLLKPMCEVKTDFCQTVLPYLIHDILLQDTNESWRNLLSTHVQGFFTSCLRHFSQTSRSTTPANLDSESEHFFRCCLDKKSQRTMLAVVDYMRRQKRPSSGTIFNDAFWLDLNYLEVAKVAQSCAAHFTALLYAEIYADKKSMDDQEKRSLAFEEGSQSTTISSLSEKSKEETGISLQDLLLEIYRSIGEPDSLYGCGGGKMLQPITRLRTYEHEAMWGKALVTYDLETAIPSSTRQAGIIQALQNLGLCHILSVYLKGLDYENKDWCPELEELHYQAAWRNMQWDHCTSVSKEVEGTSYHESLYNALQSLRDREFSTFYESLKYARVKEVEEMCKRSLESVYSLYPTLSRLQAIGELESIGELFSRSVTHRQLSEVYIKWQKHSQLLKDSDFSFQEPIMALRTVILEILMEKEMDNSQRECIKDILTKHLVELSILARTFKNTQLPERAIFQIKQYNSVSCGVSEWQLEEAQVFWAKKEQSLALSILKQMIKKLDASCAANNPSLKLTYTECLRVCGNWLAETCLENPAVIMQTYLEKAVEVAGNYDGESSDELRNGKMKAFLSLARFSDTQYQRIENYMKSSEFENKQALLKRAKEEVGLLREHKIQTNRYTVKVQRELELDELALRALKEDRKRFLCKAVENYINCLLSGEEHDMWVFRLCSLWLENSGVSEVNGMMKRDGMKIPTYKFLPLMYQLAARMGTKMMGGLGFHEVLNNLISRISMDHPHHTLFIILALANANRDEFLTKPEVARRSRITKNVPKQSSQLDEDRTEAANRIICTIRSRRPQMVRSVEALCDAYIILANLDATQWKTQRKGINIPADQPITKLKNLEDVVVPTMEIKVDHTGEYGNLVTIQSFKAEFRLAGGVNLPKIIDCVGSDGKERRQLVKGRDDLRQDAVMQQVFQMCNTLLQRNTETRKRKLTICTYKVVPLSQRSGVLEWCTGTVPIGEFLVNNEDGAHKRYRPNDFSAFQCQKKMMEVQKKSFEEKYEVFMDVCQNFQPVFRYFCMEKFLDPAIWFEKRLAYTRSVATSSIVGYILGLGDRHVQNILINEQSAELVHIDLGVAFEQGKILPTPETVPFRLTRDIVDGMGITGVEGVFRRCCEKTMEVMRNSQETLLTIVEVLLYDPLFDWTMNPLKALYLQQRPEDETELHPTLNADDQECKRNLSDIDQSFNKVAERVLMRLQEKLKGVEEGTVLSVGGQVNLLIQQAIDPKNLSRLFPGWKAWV", "conditions": "related kinase, selectivity; cited from earlier work"}, "LKB1": {"tested_on": "LKB1", "experiment": "LKB1 activation (LKB1 phosphorylation) in C2C12 cells", "type": "cell-based", "conditions": "NU7026 2.5 μM, Resveratrol 50 μM, FIG. 51A", "experimental": "Cells were treated with DNA-PKcs inhibitors to ascertain whether DNA-PKcs suppresses LKB1 activity in vitro."}, "MCF7 cells": {"tested_on": "MCF7 cells", "experiment": "ATP level in MCF7 cells", "type": "cell-based", "conditions": "1 and 2.5 μM, FIG. 20", "experimental": "The level of ATP and the ADP/ATP ratio in cells were determined using an\nENLITEN ATP assay kit (Promega) and ApoGlow assay kit (Cambrex), respectively. […] To determine whether the AMPK-inhibitory function of DNA-PKcs is cell autonomous, quiescent MCF7 cells were treated with 1 and 2.5 μM NU7026."}, "leukemic cells": {"tested_on": "leukemic cells", "conditions": "Willmore et al. Blood 103:4659, 2004; cited from earlier work"}},
  "data": [
    {"smiles": "O=c1cc(N2CCOCC2)oc2c1ccc1ccccc12", "note": "[NU7026, 2-(morpholin-4-yl)-benzo[h]chomen-4-one]", "values": [
      {"measurement": "blood-brain barrier (BBB) penetration", "setting": "[1]", "value": "can penetrate the blood-brain barrier (BBB) efficiently"},
      {"measurement": "PGC-1α expression", "setting": "PGC-1α", "value": "not able to induce PGC-1α expression"},
      {"measurement": "AMPK activation", "setting": "AMPK; C2C12 cells, absence of STO609, FIG. 50", "value": "activated"},
      {"measurement": "AMPK activation", "setting": "AMPK; C2C12 cells, presence of CaMK inhibitor STO609, FIG. 50", "value": "still observed"},
      {"measurement": "AMPK activation", "setting": "AMPK; differentiated C2C12 myoblasts, data not shown", "value": "also activated AMPK"},
      {"measurement": "induction of DNA-PKcs activation by ionizing radiation", "setting": "DNA-PKcs; MCF7 cells in 25 mM glucose", "value": "able to depress the induction of DNA-PKcs activation"},
      {"measurement": "basal activity of DNA-PKcs", "setting": "DNA-PKcs; MCF-7 cells in 25 mM glucose, no ionizing radiation", "value": "suppressed"},
      {"measurement": "IC50", "setting": "PI3K", "value": 13, "unit": "µM"},
      {"measurement": "concentration required to induce a similar level of Sirt1", "setting": "Sirt1 and PGC-1α", "value": 2.5, "unit": "µM"},
      {"measurement": "PGC-1α and Sirt1 expression", "setting": "Sirt1 and PGC-1α; FIG. 49", "value": "dramatically elevated"},
      {"measurement": "levels of anxiety/depression", "setting": "Elevated plus maze test; elevated plus maze and light/dark chamber tests, FIGS. 47 and 48", "value": "dramatically lower levels of anxiety/depression"},
      {"measurement": "time in closed arm of the elevated plus maze", "setting": "Elevated plus maze test; treated vs untreated mice", "value": "less time in a closed arm"},
      {"measurement": "time in open arm of the elevated plus maze", "setting": "Elevated plus maze test; treated vs untreated mice", "value": "more time in the open arm"},
      {"measurement": "immobility in the forced swim test", "setting": "Forced swim test (FST)", "value": "decreased immobility"},
      {"measurement": "IC50", "setting": "ATM", "value": "> 100", "unit": "µM"},
      {"measurement": "LKB1 activation (LKB1 phosphorylation)", "setting": "LKB1", "value": "caused LKB1 activation"},
      {"measurement": "ATP levels", "setting": "MCF7 cells", "value": "without significantly affecting ATP levels"},
      {"measurement": "sensitization to topoisomerase II inhibitors", "setting": "leukemic cells", "value": "sensitize leukemic cells to topoisomerase II inhibitors"}
    ]}
  ]
}
